Test results reported in PMC5209880, “Mobilization of hematopoietic stem cells with the novel CXCR4 antagonist POL6326 (balixafortide) in healthy volunteers—results of a dose escalation trial” (Journal of Translational Medicine, 2017).
Read-outs that look alike come from different tables or passages of the source.

Legend:
[1] = test system: healthy male volunteers; assay: Subjective rating questionnaire of G-CSF vs. balixafortide at follow-up; settings: number of responses
[2] = test system: CD34+ cells (HSPC); assay: Mobilization of CD34+ cells, single platform flow cytometry of blood; assay type: in vivo, human
Protocol: A total of 27 volunteers were treated with balixafortide.
(§1) Blood samples were collected at the indicated times (Figs. 1, 2, 3, 4, 5 and 6) and kept at room temperature (maximum 2–3 h.) until immediately before analysis. Complete blood counts were assessed with the Sysmex XT1800 hematology analyzer (Norderstedt, Germany). CD34+ cells were quantified using the single platform flow cytometry analysis with the SCE Kit [Becton–Dickinson (BD), Heidelberg, Germany] according to the manufacturer’s instructions and ISHAGE guidelines. In addition, multi-parametric flow cytometric analyses were performed to quantify co-mobilized mature cell subsets such as T (CD45+ CD3+), B (CD45+ CD19+) and NK (CD45+ CD56+ 16+) cells (Multitest, T cells, BD), T cell subpopulations (CD45+ CD3+ CD4+/CD8+, Multitest, TBNL cells, BD) and monocytes (CD45+ CD14+, all from BD). In addition, plasmacytoid dendritic cell progenitors (pro-pDCs) were identified as CD45dimCD34dimCD45RA + CD123high (all moABs from BD). Lyse-no-wash protocols were used in conjunction with BD counting beads for direct cell enumeration for CD34+ cells and T cell subsets; all other cell concentrations were calculated using frequencies relative to directly enumerated cell species, such as CD34+, CD45+ or CD3+ cells.

[3] = test system: healthy male volunteers; assay: Phase I dose escalation trial: safety and tolerability, adverse events
Protocol: Additional eligibility (inclusion) criteria for treatment with balixafortide were the same as for G-CSF mobilized stem cell donation. Between G-CSF mobilization/HSPC donation and study participation there was a wash-out period of at least 6 weeks.
Study drug was administered on an in-patient basis in the phase I clinical trial unit of Goethe University Medical Center, the ‘Klinisches Studienzentrum Rhein-Main’. Volunteers were discharged 24 h after treatment, to return for a follow-up appointment 8–14 days thereafter.
(§2) A total of 27 volunteers were treated with balixafortide. A treatment consisted of a single intravenous infusion of balixafortide in normal saline at doses of 500, 1000, 1500, 2000 and 2500 μg/kg, based on actual weight, followed by sequential clinical and blood analyses (see below). Initially conceived as a classical 3 + 3 dose escalation design, the volunteers were assigned to four groups defined by increasing dose levels of balixafortide (500, 1000, 1500, and 2000 μg/kg) administered by constant rate infusion at over 2 h. Subsequently, amendments were added to test additional modalities: Group 6 received 2500 μg/kg under the same conditions. Volunteers assigned to Group 5 received a dose level of 2000 μg/kg by an continuously increasing infusion rate (ramp-infusion instead of constant rate infusion) applied over 2 h. In group 7, a dose level of 1000 μg/kg was infused over 1 h at a constant rate and compared (intra-individually) to the 2 h infusion given with an interval of ≥4 weeks. A second balixafortide treatment was furthermore tested in volunteers from groups 2, 3 and 6 with groups 2 and 3 receiving 2500 μg/kg and group 6 given 1500 μg/kg as the second infusion. […] Thus, to allow for intra-individual comparison, 12 donors received a second dose of balixafortide (2 h constant infusion rate for all) after a minimum wash-out period of 4 weeks.
Vital signs were monitored immediately prior to and in the first 24 h after the start of the infusion of balixafortide; serial blood samples were drawn for biochemical safety profiling and pharmacokinetic/pharmacodynamic analyses. Given the cationic nature of the compound [17] the risk of local or systemic symptoms of histamine release was identified and anti-histamine treatment was proposed (per protocol) in case of such symptoms. […] Volunteers who received prophylactic or therapeutic anti-histamine medication are listed accordingly in Table 1.

[4] = test system: leukocytes; assay: Mobilization of mature hematopoietic cells (blood counts, flow cytometry); assay type: in vivo, human
Protocol: as §1

[5] = Pharmacokinetics from serial plasma samples after intravenous infusion
Protocol: as §2
Plasma samples were collected at the indicated times and kept frozen until immediately before analysis.
Serial plasma samples were assayed for balixafortide concentrations and pharmacokinetic parameters were calculated using Phoenix WinNonlin 6.4.

[6] = test system: patients receiving a plerixafor-mobilized graft; settings: recipients of a plerixafor-mobilized graft; cited from earlier work
[7] = test system: CD34+ cells; settings: cited from earlier work
Description: The ability of CXCR4 antagonists to rapidly dislodge stem cells from the marrow has been recognized for many years. Previously studied compounds were neither universally well tolerated nor very potent. The only currently approved CXCR4 antagonist plerixafor mobilized a median of 16 CD34+ cells per µL when administered alone (without G-CSF) in healthy donors, which is barely sufficient to generate a normal-sized graft in two apheresis sessions. || The comparator agent in our study was G-CSF given in split doses as is routine practice in our center; the rationale is twofold: more efficient mobilization and potentially better tolerability. […] Thus the advantage in efficiency of single-dose G-CSF vs. balixafortide at the doses tested here would be les ...

[8] = test system: CFU-C (HSPC); assay: Circulating colony-forming units-culture (CFU-C) in methylcellulose media; assay type: in vivo, human; settings: all doses, mean ± SEM
Description: Circulating colony-forming units-culture (CFU-C) were quantified by plating aliquots of lysed peripheral blood in commercial cytokine-replete methylcellulose media (StemMACS HSC-CFU lite with Epo, human, Miltenyi Biotec GmbH, Bergisch-Gladbach, Germany).

[9] = test system: plasmacytoid dendritic cell progenitors (pro-pDCs); assay: Mobilization of plasmacytoid dendritic cell progenitors (pro-pDCs), flow cytometry; assay type: in vivo, human; settings: balixafortide 1st treatment, constant infusion rate, 2 h; n = 21, mean ± SEM
Protocol: as §1

[10] = test system: healthy male volunteers; settings: in vivo
[11] = 500 μg/kg, 2 h const. infusion, n = 3 volunteers
[12] = 1000 μg/kg, 1 h const. infusion, n = 3 volunteers
[13] = 1000 μg/kg, 2 h const. infusion, n = 7 volunteers
[14] = 1500 μg/kg, 2 h const. infusion, n = 7 volunteers
[15] = 2000 μg/kg, 2 h const. infusion, n = 6 volunteers
[16] = 2000 μg/kg, 2 h ramp infusion, n = 3 volunteers
[17] = 2500 μg/kg, 2 h const. infusion, n = 10 volunteers

## C[C@@H]1NC(=O)[C@H](Cc2c[nH]cn2)NC(=O)[C@H](Cc2ccc(O)cc2)NC(=O)[C@@H]2CCCN2C(=O)[C@H]2CCCN2C(=O)[C@H](CCCCN)NC(=O)[C@H](CCC(N)=O)NC(=O)[C@H](Cc2ccc(O)cc2)NC(=O)[C@@H]2CSSC[C@H](NC1=O)C(=O)N[C@@H](CO)C(=O)N[C@@H](C)C(=O)N1CCC[C@@H]1C(=O)N[C@@H](CCN)C(=O)N[C@@H](CCCNC(=N)N)C(=O)N[C@@H](Cc1ccc(O)cc1)C(=O)N2 [balixafortide]
[1]
  Side effects in the course of treatment: Abdominal pain: 0
  Side effects in the course of treatment: Bone pain: 0
  Side effects in the course of treatment: Fatigue: 4
  Side effects in the course of treatment: Fever: 0
  Side effects in the course of treatment: Flu-like symptoms: 0
  Side effects in the course of treatment: Headache: 1
  Side effects in the course of treatment: Insomnia: 1
  Side effects in the course of treatment: Palpitation: 0
  Side effects in the course of treatment: Skin reactions: 13
  Side effects in the course of treatment: Sweating: 1
  Side effects in the course of treatment: Vomiting: 1
[2]; 500 µg/kg
  Time of peak CD34+ mobilization after the end of the infusion: 1 h
[2]; doses higher than 500 µg/kg
  Time of peak CD34+ mobilization after the end of the infusion: approximately 4 h
[2]; doses of 1500-2500 µg/kg, single i.v. infusion, mean ± SEM
  Mean peak mobilization of CD34+ cells: 38.2 ± 2.8 CD34+ cells/µL
[3]; 500 µg/kg
  Mild skin reactions such as flushing, urticaria or local itching, volunteers reporting: 1/3
[3]; [11]
  Infusion site erythema (volunteers with AE): 1
  Volunteers with AE: 1
[3]; 1000 µg/kg
  Mild skin reactions such as flushing, urticaria or local itching, volunteers reporting: 4/10
[3]; [12]
  Pruritus (volunteers with AE): 1
  Volunteers with AE: 1
[3]; [13]
  BP increase (volunteers with AE): 2
  Infusion site pruritus (volunteers with AE): 1
  Pruritus (volunteers with AE): 2
  Volunteers with AE: 5
[3]; 1500 µg/kg
  Mild skin reactions such as flushing, urticaria or local itching, volunteers reporting: 2/7
[3]; [14]
  Erythema (volunteers with AE): 1
  Infusion site erythema (volunteers with AE): 2
  Infusion site irritation (volunteers with AE): 1
  Infusion site pruritus (volunteers with AE): 1
  Pruritus (volunteers with AE): 1
  Urticaria (volunteers with AE): 1
  Volunteers with AE: 2
[3]; 2000 µg/kg
  Mild skin reactions such as flushing, urticaria or local itching, volunteers reporting: 8/9
[3]; [15]
  Blood CK increased (volunteers with AE): 2
  Bone pain (volunteers with AE): 1
  Erythema (volunteers with AE): 4
  Flushing (volunteers with AE): 1
  Hypoasthesia (volunteers with AE): 1
  Pruritus (volunteers with AE): 4
  Urticaria (volunteers with AE): 1
  Volunteers with AE: 6
[3]; [16]
  Flushing (volunteers with AE): 1
  Pruritus (volunteers with AE): 2
  Volunteers with AE: 2
[3]; 2500 µg/kg
  Mild skin reactions such as flushing, urticaria or local itching, volunteers reporting: 7/10
[3]; [17]
  Erythema (volunteers with AE): 7
  Feeling hot (volunteers with AE): 1
  Headache (volunteers with AE): 1
  Hypoasthesia (volunteers with AE): 1
  Hypoasthesia oral (volunteers with AE): 2
  Muscle tightness (volunteers with AE): 1
  Throat tightness (volunteers with AE): 1
  Vertigo (volunteers with AE): 1
  Volunteers with AE: 7
[3]; all doses 500-2500 µg/kg, 27 volunteers, 39 doses
  Severe adverse events (SAEs): No severe adverse events (SAEs) were observed
[3]; whole trial
  Systolic blood pressure reading of >150 mmHg, considered possibly related to study drug: 2 subjects
  Unexplained elevation in serum creatinine kinase, considered possibly related to study drug: 2 subjects
[4]; doses of 1500-2500 µg/kg
  Mature cells mobilized relative to G-CSF: approximately half as many mature cells as G-CSF
[4]; doses of 1500-2500 µg/kg, mean ± SEM
  White blood counts (WBCs) reached: 25.3 ± 1.4 × 10*3 WBC/µL
[5]; human plasma, i.v. infusion 500-2500 µg/kg, Phoenix WinNonlin 6.4, approximately
  Volume of distribution: 0.5 to 0.6 L/kg
[5]; human, i.v. infusion
  Clearance: almost equal to the glomerular filtration rate
[5]; human, i.v. infusion 500-2500 µg/kg, n = 3-6
  Dose dependence of Cmax and AUC: dose linearity for both Cmax and AUC
[5]; human, plasma, iv
  half-life: ~5 h

## c1cc(CN2CCCNCCNCCCNCC2)ccc1CN1CCCNCCNCCCNCC1 [plerixafor, reference compound]
[6]
  Patients who developed acute GvHD 3° or 4°: 1/20
[7]; administered alone (without G-CSF) in healthy donors
  Median CD34+ cells mobilized: 16 CD34+ cells per µL

B1: filgrastim (protein, UniProt P09919 31-207, looked up)
Granulocyte …: TPLGPASSLPQSFLLKCLEQVRKIQGDGAALQEKLVSECATYKLCHPEELVLLGHSLGIPWAPLSSCPSQALQLAGCLSQLHSGLFLYQGLLQALEGISPELGPTLDTLQLDVADFATTIWQQMEELGMAPALQPTQGAMPAFASAFQRRAGGVLVASHLQSFLEVSYRVLRHLAQP
modifications: filgrastim, N-terminal Met
notes: cytokine, standard hematopoietic stem and progenitor cell mobilizing agent
[2]; 5-day course of filgrastim 7.5-10 µg/kg per day in 2 divided doses, mean ± SEM
  Mobilization response of CD34+ cells: 121.6 ± 8.6 CD34+ cells/μL
[2]; intra-individual comparison, balixafortide 1500-2500 µg/kg, on average
  Effectiveness of G-CSF regimen relative to balixafortide, CD34+ mobilization: about three times as effective
[8]
  Clonogenicity: mobilized CD34+ cells per 1 CFU-C: 3.2 ± 0.2 CD34+ cells
[7]; same daily dose as a single injection
  Average CD34+ cell counts: mid-sixties’ range
[9]
  Mobilization of pDC progenitors (% of CD34+CD45dim): 2.18±0.34%
[10]
  Side effects in the course of treatment: Abdominal pain: 2
  Side effects in the course of treatment: Bone pain: 24
  Side effects in the course of treatment: Fatigue: 11
  Side effects in the course of treatment: Fever: 2
  Side effects in the course of treatment: Flu-like symptoms: 21
  Side effects in the course of treatment: Headache: 11
  Side effects in the course of treatment: Insomnia: 0
  Side effects in the course of treatment: Palpitation: 1
  Side effects in the course of treatment: Skin reactions: 1
  Side effects in the course of treatment: Sweating: 0
  Side effects in the course of treatment: Vomiting: 0
[4]; mean ± SEM
  Ratio between T-lymphocytes and CD34+ cells in mobilized blood: 26.2 ± 1.98 :1
